Data reported in the supplement of paper PMC10132981, “Formate overflow drives toxic folate trapping in MTHFD1 inhibited cancer cells” (Nature Metabolism, 2023).

Columns and labels:
[1] = test system: PA-TU-8988T; assay: EC50 for viability (resazurin, 96 h); conditions: DMEM+GlutaMAX (5% dFBS, 1% P/S)
[2] = test system: SW620 MTHFD2-/-; assay: cell viability relative to vehicle (resazurin, 96 h); higher = more viable; conditions: base medium: RPMI + dialysed FBS
Description: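 SW620 WT or MTHFD2-/- cells were treated for 96 h with a compound dilution series (log10 M) in RPMI with normal or dialysed FBS. Viability was read by resazurin and is given as % of vehicle.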

Nc1nc(N)c(CC(=O)Nc2cnc(C(=O)N[C@@H](CCC(=O)O)C(=O)O)c(F)c2)c(=O)[nH]1 [TH9619]
Conditions	EC50 for viability [nM]
[1], metabolite supplement: Thymidine	29.5

CN(Cc1cnc2nc(N)nc(N)c2n1)c1ccc(C(=O)N[C@@H](CCC(=O)O)C(=O)O)cc1 [methotrexate]
Conditions	EC50 for viability [nM]	cell viability [%]
[1], metabolite supplement: Hypoxanthine	237	–
[1], metabolite supplement: Sodium Formate	85.5	–
[1], metabolite supplement: Thymidine	50	–
[2], log10 compound concentration (M): -6, supplement / serum: 50 μM Hypoxanthine	–	6.45
[2], log10 compound concentration (M): -6, supplement / serum: 50 μM Thymidine	–	6.68
[2], log10 compound concentration (M): -6, supplement / serum: 50 μM Thymidine + 50 μM Hypoxanthine	–	111
[2], log10 compound concentration (M): -6, supplement / serum: Hypoxanthine	–	6.76
[2], log10 compound concentration (M): -6, supplement / serum: Hypoxanthine+Sodium Formate	–	6.18
[2], log10 compound concentration (M): -6, supplement / serum: Hypoxanthine+Sodium Formate+Thymidine	–	93.3
[2], log10 compound concentration (M): -6, supplement / serum: No metabolite	–	7.7
[2], log10 compound concentration (M): -6, supplement / serum: Sodium Formate	–	7.05
[2], log10 compound concentration (M): -6, supplement / serum: Vehicle	–	7.38
[2], log10 compound concentration (M): -6.47712, supplement / serum: 50 μM Hypoxanthine	–	6.99
[2], log10 compound concentration (M): -6.47712, supplement / serum: 50 μM Thymidine	–	7.63
[2], log10 compound concentration (M): -6.47712, supplement / serum: 50 μM Thymidine + 50 μM Hypoxanthine	–	115
[2], log10 compound concentration (M): -6.47712, supplement / serum: Hypoxanthine	–	7.12
[2], log10 compound concentration (M): -6.47712, supplement / serum: Hypoxanthine+Sodium Formate	–	6.79
[2], log10 compound concentration (M): -6.47712, supplement / serum: Hypoxanthine+Sodium Formate+Thymidine	–	112
[2], log10 compound concentration (M): -6.47712, supplement / serum: No metabolite	–	7.99
[2], log10 compound concentration (M): -6.47712, supplement / serum: Sodium Formate	–	7.19
[2], log10 compound concentration (M): -6.47712, supplement / serum: Vehicle	–	7.78
[2], log10 compound concentration (M): -6.95424, supplement / serum: 50 μM Hypoxanthine	–	7.25
[2], log10 compound concentration (M): -6.95424, supplement / serum: 50 μM Thymidine	–	7.71
[2], log10 compound concentration (M): -6.95424, supplement / serum: 50 μM Thymidine + 50 μM Hypoxanthine	–	111
[2], log10 compound concentration (M): -6.95424, supplement / serum: Hypoxanthine	–	7.47
[2], log10 compound concentration (M): -6.95424, supplement / serum: Hypoxanthine+Sodium Formate	–	7.62
[2], log10 compound concentration (M): -6.95424, supplement / serum: Hypoxanthine+Sodium Formate+Thymidine	–	107
[2], log10 compound concentration (M): -6.95424, supplement / serum: No metabolite	–	8.02
[2], log10 compound concentration (M): -6.95424, supplement / serum: Sodium Formate	–	7.59
[2], log10 compound concentration (M): -6.95424, supplement / serum: Vehicle	–	7.71
[2], log10 compound concentration (M): -7.43136, supplement / serum: 50 μM Hypoxanthine	–	14.5
[2], log10 compound concentration (M): -7.43136, supplement / serum: 50 μM Thymidine	–	7.18
[2], log10 compound concentration (M): -7.43136, supplement / serum: 50 μM Thymidine + 50 μM Hypoxanthine	–	95.6
[2], log10 compound concentration (M): -7.43136, supplement / serum: Hypoxanthine	–	11.5
[2], log10 compound concentration (M): -7.43136, supplement / serum: Hypoxanthine+Sodium Formate	–	11.1
[2], log10 compound concentration (M): -7.43136, supplement / serum: Hypoxanthine+Sodium Formate+Thymidine	–	98.6
[2], log10 compound concentration (M): -7.43136, supplement / serum: No metabolite	–	7.722
[2], log10 compound concentration (M): -7.43136, supplement / serum: Sodium Formate	–	7.53
[2], log10 compound concentration (M): -7.43136, supplement / serum: Vehicle	–	7.22
[2], log10 compound concentration (M): -7.90849, supplement / serum: 50 μM Hypoxanthine	–	70.7
[2], log10 compound concentration (M): -7.90849, supplement / serum: 50 μM Thymidine	–	12.3
[2], log10 compound concentration (M): -7.90849, supplement / serum: 50 μM Thymidine + 50 μM Hypoxanthine	–	106
[2], log10 compound concentration (M): -7.90849, supplement / serum: Hypoxanthine	–	54.5
[2], log10 compound concentration (M): -7.90849, supplement / serum: Hypoxanthine+Sodium Formate	–	55.4
[2], log10 compound concentration (M): -7.90849, supplement / serum: Hypoxanthine+Sodium Formate+Thymidine	–	102
[2], log10 compound concentration (M): -7.90849, supplement / serum: No metabolite	–	10.5
[2], log10 compound concentration (M): -7.90849, supplement / serum: Sodium Formate	–	11.5
[2], log10 compound concentration (M): -7.90849, supplement / serum: Vehicle	–	8.29
[2], log10 compound concentration (M): -8.38561, supplement / serum: 50 μM Hypoxanthine	–	76.3
[2], log10 compound concentration (M): -8.38561, supplement / serum: 50 μM Thymidine	–	14.7
[2], log10 compound concentration (M): -8.38561, supplement / serum: 50 μM Thymidine + 50 μM Hypoxanthine	–	102
[2], log10 compound concentration (M): -8.38561, supplement / serum: Hypoxanthine	–	74.7
[2], log10 compound concentration (M): -8.38561, supplement / serum: Hypoxanthine+Sodium Formate	–	79.4
[2], log10 compound concentration (M): -8.38561, supplement / serum: Hypoxanthine+Sodium Formate+Thymidine	–	84.7
[2], log10 compound concentration (M): -8.38561, supplement / serum: No metabolite	–	9.121
[2], log10 compound concentration (M): -8.38561, supplement / serum: Sodium Formate	–	33.1
[2], log10 compound concentration (M): -8.38561, supplement / serum: Vehicle	–	15.5
[2], log10 compound concentration (M): -8.86273, supplement / serum: 50 μM Hypoxanthine	–	92.6
[2], log10 compound concentration (M): -8.86273, supplement / serum: 50 μM Thymidine	–	66.7
[2], log10 compound concentration (M): -8.86273, supplement / serum: 50 μM Thymidine + 50 μM Hypoxanthine	–	109
[2], log10 compound concentration (M): -8.86273, supplement / serum: Hypoxanthine	–	92.5
[2], log10 compound concentration (M): -8.86273, supplement / serum: Hypoxanthine+Sodium Formate	–	97.5
[2], log10 compound concentration (M): -8.86273, supplement / serum: Hypoxanthine+Sodium Formate+Thymidine	–	91.4
[2], log10 compound concentration (M): -8.86273, supplement / serum: No metabolite	–	47.4
[2], log10 compound concentration (M): -8.86273, supplement / serum: Sodium Formate	–	72.7
[2], log10 compound concentration (M): -8.86273, supplement / serum: Vehicle	–	45.5
[2], log10 compound concentration (M): -9.33985, supplement / serum: 50 μM Hypoxanthine	–	100
[2], log10 compound concentration (M): -9.33985, supplement / serum: 50 μM Thymidine	–	87.7
[2], log10 compound concentration (M): -9.33985, supplement / serum: 50 μM Thymidine + 50 μM Hypoxanthine	–	102
[2], log10 compound concentration (M): -9.33985, supplement / serum: Hypoxanthine	–	92.7
[2], log10 compound concentration (M): -9.33985, supplement / serum: Hypoxanthine+Sodium Formate	–	96.4
[2], log10 compound concentration (M): -9.33985, supplement / serum: Hypoxanthine+Sodium Formate+Thymidine	–	98.6
[2], log10 compound concentration (M): -9.33985, supplement / serum: No metabolite	–	82.1
[2], log10 compound concentration (M): -9.33985, supplement / serum: Sodium Formate	–	101
[2], log10 compound concentration (M): -9.33985, supplement / serum: Vehicle	–	80.1
[2], log10 compound concentration (M): -9.81697, supplement / serum: 50 μM Hypoxanthine	–	95.3
[2], log10 compound concentration (M): -9.81697, supplement / serum: 50 μM Thymidine	–	109.8
[2], log10 compound concentration (M): -9.81697, supplement / serum: 50 μM Thymidine + 50 μM Hypoxanthine	–	104
[2], log10 compound concentration (M): -9.81697, supplement / serum: Hypoxanthine	–	102
[2], log10 compound concentration (M): -9.81697, supplement / serum: Hypoxanthine+Sodium Formate	–	100
[2], log10 compound concentration (M): -9.81697, supplement / serum: Hypoxanthine+Sodium Formate+Thymidine	–	98.5
[2], log10 compound concentration (M): -9.81697, supplement / serum: No metabolite	–	97.9
[2], log10 compound concentration (M): -9.81697, supplement / serum: Sodium Formate	–	97.9
[2], log10 compound concentration (M): -9.81697, supplement / serum: Vehicle	–	94.8
[2], log10 compound concentration (M): -10.2941, supplement / serum: 50 μM Hypoxanthine	–	105
[2], log10 compound concentration (M): -10.2941, supplement / serum: 50 μM Thymidine	–	93.5
[2], log10 compound concentration (M): -10.2941, supplement / serum: 50 μM Thymidine + 50 μM Hypoxanthine	–	103
[2], log10 compound concentration (M): -10.2941, supplement / serum: Hypoxanthine	–	91
[2], log10 compound concentration (M): -10.2941, supplement / serum: Hypoxanthine+Sodium Formate	–	96.2
[2], log10 compound concentration (M): -10.2941, supplement / serum: Hypoxanthine+Sodium Formate+Thymidine	–	100
[2], log10 compound concentration (M): -10.2941, supplement / serum: No metabolite	–	94.6
[2], log10 compound concentration (M): -10.2941, supplement / serum: Sodium Formate	–	95.9
[2], log10 compound concentration (M): -10.2941, supplement / serum: Vehicle	–	87.6
[2], log10 compound concentration (M): -10.7712, supplement / serum: 50 μM Hypoxanthine	–	88.2
[2], log10 compound concentration (M): -10.7712, supplement / serum: 50 μM Thymidine	–	96.2
[2], log10 compound concentration (M): -10.7712, supplement / serum: 50 μM Thymidine + 50 μM Hypoxanthine	–	110
[2], log10 compound concentration (M): -10.7712, supplement / serum: Hypoxanthine	–	98.1
[2], log10 compound concentration (M): -10.7712, supplement / serum: Hypoxanthine+Sodium Formate	–	92.28
[2], log10 compound concentration (M): -10.7712, supplement / serum: Hypoxanthine+Sodium Formate+Thymidine	–	103
[2], log10 compound concentration (M): -10.7712, supplement / serum: No metabolite	–	111
[2], log10 compound concentration (M): -10.7712, supplement / serum: Sodium Formate	–	95
[2], log10 compound concentration (M): -10.7712, supplement / serum: Vehicle	–	95.6
